Patent US9353082B2, “Pharmaceutical compounds” (BIAL—PORTELA & CA, S.A., priority 2008, dated 2016)
Structures can show the parent of a compound that is named as a salt.

Experiments:
[1] = target: T1, FAAH (Mus musculus, UniProt O08914); assay: In vivo FAAH inhibition after oral dosing, remaining activity in liver homogenate (LVh, peripheral tissue); parameters: species or system NMRI mice; settings: liver homogenate, 3 mg/kg, 8 h after dosing; low value = strong inhibitor
T1 construct: A fragment of liver, left lung lobe and brain without cerebellum were removed; from tissue; host or cells: male NMRI mice; brain (without cerebellum) and liver homogenates
T1 sequence (O08914 1-579): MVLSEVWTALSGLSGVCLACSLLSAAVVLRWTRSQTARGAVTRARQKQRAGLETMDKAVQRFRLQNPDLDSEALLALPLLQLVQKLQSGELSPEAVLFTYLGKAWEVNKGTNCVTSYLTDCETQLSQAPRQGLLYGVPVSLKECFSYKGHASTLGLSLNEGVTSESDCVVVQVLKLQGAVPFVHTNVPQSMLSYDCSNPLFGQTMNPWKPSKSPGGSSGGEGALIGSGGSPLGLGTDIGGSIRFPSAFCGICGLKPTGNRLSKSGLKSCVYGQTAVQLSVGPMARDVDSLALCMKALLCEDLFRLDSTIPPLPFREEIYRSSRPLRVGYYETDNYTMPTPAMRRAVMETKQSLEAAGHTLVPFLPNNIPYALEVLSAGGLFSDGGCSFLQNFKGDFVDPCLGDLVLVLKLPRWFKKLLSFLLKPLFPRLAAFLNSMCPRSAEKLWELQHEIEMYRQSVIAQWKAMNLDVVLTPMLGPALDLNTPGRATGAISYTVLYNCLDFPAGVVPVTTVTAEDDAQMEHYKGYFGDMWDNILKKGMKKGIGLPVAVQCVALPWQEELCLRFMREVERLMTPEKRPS
Method: (§1) The in vivo test was performed according to the protocol described below. BRh indicates inhibition in central nervous tissue and LVh indicates inhibition in peripheral tissue, in this case liver.
(§2) The animals used for experiments were male NMRI mice (weighing 27-44 g) obtained from Interfauna Ibérica (Spain). Mice were kept 5 per cage, under controlled environmental conditions (12 hr light/dark cycle and room temperature 22±1° C.). Food and tap water were allowed ad libitum and the experiments were all carried out during daylight hours.
(§3) Animals were administered 30 mg/kg or 3 mg/kg compounds of the invention via oral route (8 ml/kg; compound suspended in 0.5% carboxymethylcellulose (CMC) or solubilized in water) or vehicle (controls) using animal feeding stainless steel curve needles (Perfectum, U.S.A.). Fifteen minutes before sacrifice animal were anesthetized with pentobarbital 60 mg/kg administered intraperitoneally. A fragment of liver, left lung lobe and brain without cerebellum were removed and put in plastic vials containing membrane buffer (3 mM MgCl2, 1 mM EDTA, 50 mM Tris HCl pH 7.4). Tissues were stored at −30° C. until analysis.
(§4) Animals were always fasted overnight before administration of compounds except for time points of >18 h, where food was removed on the morning of day of administration and the compound was administered in the afternoon of the same day. Animals were then given water but nothing else.
(§5) Tissues were thawed on ice and were homogenized in 10 volumes of membrane buffer (3 mM MgCl2, 1 mM EDTA, 50 mM Tris HCl pH 7.4) with either Potter-Elvejhem (brains—8 strokes at 500 rpm) or Heidolph Diax (livers—2 strokes at position 5 for 20 sec with 30 sec pauses).
(§6) Total protein in tissues was determined with the BioRad Protein Assay (BioRad) using a standard curve of BSA (50-250 μg/ml).
(§7) Reaction mix (total volume of 200 μl) contained: […] (2 μM AEA+5 nM ^3H-AEA), 0.1% fatty acid free BSA, 15 μg (brain), 5 μg (liver) or 50 μg (lung) protein, in 1 mM EDTA, 10 mM Tris pH 7.6. After a […] pre-incubation period at 37° C., reaction was started by the addition of the substrate solution (cold AEA+radiolabelled AEA+BSA). Reaction was carried out for 10 min (brain and lung) or […] (liver) before termination by the addition of 400 μl activated charcoal suspension (8 g charcoal in 32 ml 0.5 M HCl in continuous agitation). After a […] incubation period at room temperature with agitation, charcoal was sedimented by centrifugation in microfuge (10 min at 13000 rpm). 200 μl of the supernatant were added to 800 μl Optiphase Supermix scintillation cocktail previously distributed in 24-well plates. Counts per minute (cpm) were determined in a MicrobetaTriLux scintillation counter.
(§8) In each assay blanks (without protein) were prepared.
(§9) The percentage of remaining enzymatic activity was calculated in respect to controls and after blank subtraction.

[2] = target: T1, FAAH; assay: In vivo FAAH inhibition after oral dosing, remaining activity in brain homogenate (BRh, central nervous tissue); parameters: species or system NMRI mice; settings: brain homogenate, 3 mg/kg, 8 h after dosing; low value = strong inhibitor
Method: as §1, §2, §3, §4, §5, §6, §7, §8, §9

SMILES | In Vivo LVh 3 mg·kg 8 h (remaining FAAH activity, % of control) [1] | In Vivo BRh 3 mg·kg 8 h (remaining FAAH activity, % of control) [2]
CN(C(=O)n1cnc(-c2ccc3c(c2)[nH]c(=O)n3Cc2ccccc2)c1)C1CCCCC1 [Compound no. 426, 4-(1-benzyl-2-oxo-2,3-dihydro-1H-benzo[d]imidazol-5-yl)-N-cyclohexyl-N-methyl-1H-imidazole-1-carboxamide] | 115.8 % of control | 96.9 % of control
CN(C(=O)n1cnc(-c2ccc(S(=O)(=O)N3CCC(O)CC3)cc2)c1)C1CCCCC1 [Compound no. 432, N-cyclohexyl-4-(4-(4-hydroxypiperidin-1-ylsulfonyl)phenyl)-N-methyl-1H-imidazole-1-carboxamide] | 65.5 % of control | 96.1 % of control
CN(C)c1ccc(-c2cn(C(=O)N(C)C3CCCCC3)cn2)cc1[N+](=O)[O-] [Compound no. 435, N-cyclohexyl-4-(4-(dimethylamino)-3-nitrophenyl)-N-methyl-1H-imidazole-1-carboxamide] | 4.9 % of control | 4.3 % of control
COc1ccc(-c2cn(C(=O)N(C)C3CCCCC3)cn2)cc1-c1nn[nH]n1 [Compound no. 438, N-cyclohexyl-4-(4-methoxy-3-(2H-tetrazol-5-yl)phenyl)-N-methyl-1H-imidazole-1-carboxamide] | 6.1 % of control | 92.4 % of control
CN(C(=O)n1cnc(-c2ccc(O)c(-c3nn[nH]n3)c2)c1)C1CCCCC1 [Compound no. 439, N-cyclohexyl-4-(4-hydroxy-3-(2H-tetrazol-5-yl)phenyl)-N-methyl-1H-imidazole-1-carboxamide] | 58.6 % of control | 94.4 % of control
CC1(C)COCN1C(=O)n1nnc2cc(C(=O)NO)ccc21 [Compound no. 440, 1-(4,4-dimethyloxazolidine-3-carbonyl)-N-hydroxy-1H-benzo[d][1,2,3]triazole-5-carboxamide] | 3.3 % of control | 23.2 % of control
CN(C)c1ccc(-c2cn(C(=O)N(C)C3CCCCC3)cn2)cc1N [Compound no. 447, 4-(3-amino-4-(dimethylamino)phenyl)-N-cyclohexyl-N-methyl-1H-imidazole-1-carboxamide] | 6.5 % of control | 11.8 % of control
COc1ccc(-c2cn(C(=O)N(C)C3CCNCC3)cn2)cc1N [Compound no. 450, 4-(3-amino-4-methoxyphenyl)-N-methyl-N-(piperidin-4-yl)-1H-imidazole-1-carboxamide] | 65.4 % of control | 114.2 % of control
CN(C(=O)n1cnc(-c2ccc(O)cc2)c1)C1CCN(Cc2ccccc2)CC1 [Compound no. 451, N-(1-benzylpiperidin-4-yl)-4-(4-hydroxyphenyl)-N-methyl-1H-imidazole-1-carboxamide hydrobromide] | 0.3 % of control | 1.1 % of control
Br.CN(C(=O)n1cnc(-c2ccc(O)c(F)c2)c1)C1CCN(Cc2ccccc2)CC1 [Compound no. 454, N-(1-benzylpiperidin-4-yl)-4-(3-fluoro-4-hydroxyphenyl)-N-methyl-1H-imidazole-1-carboxamide hydrobromide] | 3 % of control | 3.1 % of control
Br.CN(C(=O)n1cnc(-c2ccc(O)c([N+](=O)[O-])c2)c1)C1CCN(Cc2ccccc2)CC1 [Compound no. 457, N-(1-benzylpiperidin-4-yl)-4-(4-hydroxy-3-nitrophenyl)-N-methyl-1H-imidazole-1-carboxamide hydrobromide] | 10.6 % of control | 28.1 % of control
CN(C(=O)n1cnc(-c2ccc[n+]([O-])c2)c1)C1CCN(Cc2ccccc2)CC1 [Compound no. 459, 3-(1-((1-benzylpiperidin-4-yl)(methyl)carbamoyl)-1H-imidazol-4-yl)pyridine 1-oxide] | 1.9 % of control | 1.3 % of control
Br.CN(C(=O)n1cnc(-c2ccc(O)c(O)c2)c1)C1CCN(Cc2ccccc2)CC1 [Compound no. 465, N-(1-benzylpiperidin-4-yl)-4-(3,4-dihydroxyphenyl)-N-methyl-1H-imidazole-1-carboxamide hydrobromide] | 3.1 % of control | 3.8 % of control
COc1ccc(-c2cn(C(=O)N(C)C3CCOCC3)cn2)cc1N [Compound no. 468, 4-(3-amino-4-methoxyphenyl)-N-methyl-N-(tetrahydro-2H-pyran-4-yl)-1H-imidazole-1-carboxamide] | 4.3 % of control | 4.7 % of control
CN(C(=O)n1cnc(-c2ccc(O)cc2)c1)C1CCN(C(=O)OC(C)(C)C)CC1 [Compound no. 469, tert-butyl 4-(4-(4-hydroxyphenyl)-N-methyl-1H-imidazole-1-carboxamido)piperidine-1-carboxylate] | 0.7 % of control | 1.4 % of control
COc1ccc(-c2cn(C(=O)N(C)C3CCCCC3)cn2)cc1C(N)=O [Compound no. 482, 4-(3-carbamoyl-4-methoxyphenyl)-N-cyclohexyl-N-methyl-1H-imidazole-1-carboxamide] | 16.7 % of control | 83.2 % of control
COc1ccc(-c2cn(C(=O)N(C)C3CCCCC3)cn2)cc1NS(C)(=O)=O [Compound no. 485, N-cyclohexyl-4-(4-methoxy-3-(methylsulfonamido)phenyl)-N-methyl-1H-imidazole-1-carboxamide] | 15.1 % of control | 92.1 % of control
CN(C(=O)n1cnc(-c2cccnc2)c1)C1CCN(CCc2ccccc2)CC1 [Compound no. 488, N-methyl-N-(1-phenethylpiperidin-4-yl)-4-(pyridin-3-yl)-1H-imidazole-1-carboxamide] | 2 % of control | 3.8 % of control
CN(C(=O)n1nnc2ccccc21)C1CCN(Cc2ccccc2)CC1.Cl [Compound no. 492, N-(1-benzylpiperidin-4-yl)-N-methyl-1H-benzo[d][1,2,3]triazole-1-carboxamide hydrochloride] | 0.7 % of control | 0.9 % of control
